Assay: Comparison of solubility in organic solvents at room temperature
Type: physicochemical
Source text: The compounds of the invention have very good solubility in nonpolar solvents (aromatics, alkylaromatics, cyclohexane) and dipolar aprotic solvents (ketones, ethers, esters, amides, sulfones, sulfoxides etc., such as acetone, butanone, cyclohexanone, di-n-butyl ether, THF, dioxane, 3-phenoxytoluene, anisole, ethyl acetate, butyl acetate, hexyl acetate, methyl benzoate, DMF, DMAC, NMP, DMSO, dimethyl sulfone, sulfolane, etc.) and mixtures thereof, and form solutions that are stable for a long period of time. Preferred concentrations are 5-500 mg/ml, more preferably 20-200 mg/ml.

| Structure (SMILES) | Solubility, 3-Phenoxytoluene [mg/mL] | Solubility, DMF [mg/mL] | Solubility, Cyclohexane [mg/mL] | Solubility, n-Butyl benzoate [mg/mL] | Solubility, Toluene [mg/mL] |
| --- | --- | --- | --- | --- | --- |
| c1ccc(-c2c(-c3ccccc3)c(-c3ccccc3)c(-c3cc[c]([Ir]([c]4ccc(-c5c(-c6ccccc6)c(-c6ccccc6)c(-c6ccccc6)c(-c6ccccc6)c5-c5ccccc5)cc4-c4ccccn4)[c]4ccc(-c5c(-c6ccccc6)c(-c6ccccc6)c(-c6ccccc6)c(-c6ccccc6)c5-c5ccccc5)cc4-c4ccccn4)c(-c4ccccn4)c3)c(-c3ccccc3)c2-c2ccccc2)cc1 [Ir(500)] | >150 | >70 | >5 | >80 | >100 |
| c1ccc(-c2c(-c3ccccc3)c(-c3ccccc3)c(-c3ccc(-c4cc(-c5ccccn5)[c]5cc4-c4ccccc4-c4cc6cc(c4)-c4ccccc4-c4c[c](c(-c7ccccn7)cc4-c4ccc(-c7c(-c8ccccc8)c(-c8ccccc8)c(-c8ccccc8)c(-c8ccccc8)c7-c7ccccc7)cc4)[Ir]5[c]4cc(c(-c5ccc(-c7c(-c8ccccc8)c(-c8ccccc8)c(-c8ccccc8)c(-c8ccccc8)c7-c7ccccc7)cc5)cc4-c4ccccn4)-c4ccccc4-6)cc3)c(-c3ccccc3)c2-c2ccccc2)cc1 [Ir(530)] | >150 | >70 | >5 | >80 | >100 |

Reference: US20190280220A1, “METAL COMPLEXES” (Merck Patent GmbH, priority 2016, published 2019)
